The compounds below were run against T1, β-glucocerebrosidase (Homo sapiens, UniProt P04062, L483P) (assay: Enhancement of β-glucocerebrosidase activity measured in Gaucher disease fibroblasts (4-MU-β-D-glucopyranoside substrate, intact cells)). Details: GBA fibroblasts bearing L444P (GM08760A, homozygous p.L444P); compound at concentrations between 6 and 50 μM; 4 days incubation.
T1 construct: host or cells: human Gaucher disease patient fibroblasts GM08760A
T1 sequence (P04062 40-536 L483P): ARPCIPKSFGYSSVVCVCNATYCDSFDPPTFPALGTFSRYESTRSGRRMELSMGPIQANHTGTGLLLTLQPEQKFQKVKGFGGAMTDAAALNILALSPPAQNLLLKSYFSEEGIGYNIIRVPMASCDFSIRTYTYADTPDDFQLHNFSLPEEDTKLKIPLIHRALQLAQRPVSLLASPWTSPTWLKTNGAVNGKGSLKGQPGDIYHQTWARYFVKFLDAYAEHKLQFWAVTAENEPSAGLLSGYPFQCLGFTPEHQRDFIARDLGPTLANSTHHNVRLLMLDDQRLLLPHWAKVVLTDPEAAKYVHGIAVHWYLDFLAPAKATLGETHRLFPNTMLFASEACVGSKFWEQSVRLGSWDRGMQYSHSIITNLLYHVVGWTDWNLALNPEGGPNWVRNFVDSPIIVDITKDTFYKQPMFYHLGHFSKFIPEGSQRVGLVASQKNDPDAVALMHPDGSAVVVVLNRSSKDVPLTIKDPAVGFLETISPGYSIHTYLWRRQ
Assay type: cell-based
Set-up: key: Increase in comparison with non-treated of >2.0 fold is shown as A; Increase in comparison with non-treated of >1.7-2.0 fold is shown as B; Increase in comparison with non-treated of 1.2-1.7 fold is shown as C; D means that no increase compared with non-treated cells was detected in this method
Experimental: Human fibroblasts from a patient with Gaucher disease homozygous for p.L444P mutation (GM08760A) were purchased from Coriell Institute for Medical Research (Camden, NJ, USA).
Fibroblasts were seeded at 5×10^3 cells per well in 96-well cell culture plates (Corning, NY, USA) in Dulbecco's Modified Eagle's Media (DMEM) supplemented with 10% of fetal bovine serum (FBS), 1% penicillin/streptomycin (P/S) (Thermo Fisher Scientific, Waltham, MA, USA) and grown at 37° C., 5% CO2 overnight for cell attachment. Subsequently, cells were incubated in the absence or presence of the compounds at the desired concentration for 4 days. After incubation, cells were washed twice with phosphate-buffered saline (PBS) and enzyme activity assay was performed.
β-glucocerebrosidase activity in intact cultured cells was measured by using 4-methylumbelliferyl-β-D-glucopyranoside substrate (Apollo Scientific, UK). Briefly, cells were incubated with 4-MU-β-D-glucopyranoside in 0.1 M acetate buffer pH=4 at 37° C. for 1 hour. The reaction was stopped by adding 200 μL at 100 mM glycine-NaOH pH=10.7. The liberated 4-MU was measured on a GloMax Discover plate reader (Promega, Madison, WI, USA) with and excitation at 340 nm and emission at 460 nm. Enzyme activities were expressed in treated cells as X-fold increase in comparison with non-treated cells (X=1 represents no enhancement).
The capacity of the compounds of the disclosure to produce an increase in enzyme activity in GBA fibroblasts bearing L444P at concentrations between 6 and 50 μM is denoted as follows: • Increase in comparison with non-treated of >2.0 fold is shown as A • Increase in comparison with non-treated of >1.7-2.0 fold is shown as B • Increase in comparison with non-treated of 1.2-1.7 fold is shown as C • D means that no increase compared with non-treated cells was detected in this method • ND means “not determined”

| SMILES | Range: increase in enzyme activity in comparison with non-treated cells (Enzyme activity assay for compounds of Examples 33-141) | Range: increase in enzyme activity in comparison with non-treated cells (Enzyme activity assay for exemplified compounds) |
| --- | --- | --- |
| Nc1nc(Nc2ccccc2O)nc(C(=O)NC2CCc3ccccc3C2)n1 (stereo not drawn) [Example 126, 4-Amino-6-((2-hydroxyphenyl)amino)-N-(1,2,3,4-tetrahydronaphthalen-2-yl)-1,3,5-triazine-2-carboxamide] | C (Increase in comparison with non-treated of 1.2-1.7 fold is shown as C) |  |
| COc1cccc(Nc2nc(N)c3c(n2)CCN(Cc2ccccc2)C3)c1.Cl [Example 31, 6-Benzyl-N2-(3-methoxyphenyl)-5,6,7,8-tetrahydropyrido[4,3-d]pyrimidine-2,4-diamine hydrochloride] |  | B (Increase in comparison with non-treated of >1.7-2.0 fold is shown as B) |
| Cc1ccc(Nc2nc(N)cc(C(=O)N(C)Cc3ccccc3)n2)cc1 [Example 21, 6-Amino-N-benzyl-N-methyl-2-(p-tolylamino)pyrimidine-4-carboxamide] |  | C (Increase in comparison with non-treated of 1.2-1.7 fold is shown as C) |
| Cc1cccc(Nc2nc(N)cc(C(=O)N3Cc4ccccc4C3)n2)c1 [Example 40, (6-Amino-2-(m-tolylamino)pyrimidin-4-yl)(isoindolin-2-yl)methanone] | C (Increase in comparison with non-treated of 1.2-1.7 fold is shown as C) |  |
| Nc1cc(Nc2ccccc2O)cc(C(=O)N2CCN(c3ccccc3)CC2)n1 [Example 61, (6-Amino-4-((2-hydroxyphenyl)amino)pyridin-2-yl)(4-phenylpiperazin-1-yl)methanone] | C (Increase in comparison with non-treated of 1.2-1.7 fold is shown as C) |  |
| Nc1nc2c(c(Nc3ccccc3O)n1)CCN(c1ccccc1)C2 [Example 32, 2-((2-Amino-7-phenyl-5,6,7,8-tetrahydropyrido[3,4-d]pyrimidin-4-yl)amino)phenol] |  | B (Increase in comparison with non-treated of >1.7-2.0 fold is shown as B) |
| COc1ccccc1Nc1cc(N)nc(C(=O)NC2Cc3ccccc3C2)c1 [Example 76, 6-Amino-N-(2,3-dihydro-1H-inden-2-yl)-4-((2-methoxyphenyl)amino)picolinamide] | D |  |
| Cc1ccc(Nc2cc(N)nc(C(=O)Nc3ccccc3)c2)c(O)c1 [Example 77, 6-Amino-4-((2-hydroxy-4-methylphenyl)amino)-N-phenylpicolinamide] | C (Increase in comparison with non-treated of 1.2-1.7 fold is shown as C) |  |
| Nc1cc(Nc2ccccc2O)cc(C(=O)NC2Cc3ccccc3C2)n1 [Example 67, 6-Amino-N-(2,3-dihydro-1H-inden-2-yl)-4-((2-hydroxyphenyl)amino)picolinamide] | B (Increase in comparison with non-treated of >1.7-2.0 fold is shown as B) |  |
| Nc1cc(Nc2ccccc2Cl)cc(C(=O)N2CCN(c3ccccc3)CC2)n1 [Example 60] | C (Increase in comparison with non-treated of 1.2-1.7 fold is shown as C) |  |
| Nc1cc(Nc2ccccc2F)nc(C(=O)N2Cc3ccccc3C2)c1 [Example 103, (6-(2-Fluorophenylamino)-4-aminopyridin-2-yl)(isoindolin-2-yl)methanone] | C (Increase in comparison with non-treated of 1.2-1.7 fold is shown as C) |  |
| CN(C(=O)c1cc(Nc2ccccc2O)nc(N)n1)C1CCc2ccccc2C1 (stereo not drawn) [Example 83, 2-amino-6-((2-hydroxyphenyl)amino)-N-methyl-N-(1,2,3,4-tetrahydronaphthalen-2-yl)-pyrimidine-4-carboxamide] | D |  |
| COc1cccc(Nc2cc(N)cc(C(=O)Nc3ccccc3)n2)c1.Cl [Example 135, 4-Amino-6-((3-methoxyphenyl)amino)-N-phenylpicolinamide hydrochloride] | A (Increase in comparison with non-treated of >2.0 fold is shown as A) |  |
| Nc1nc(Nc2ccccc2O)cc(C(=O)NC2Cc3ccccc3C2)n1 [Example 81, 2-amino-N-(2,3-dihydro-1H-inden-2-yl)-6-((2-hydroxyphenyl)amino)pyrimidine-4-carboxamide] | B (Increase in comparison with non-treated of >1.7-2.0 fold is shown as B) |  |
| CN(C(=O)c1cc(Nc2ccccc2O)nc(N)n1)C1Cc2ccccc2C1 [Example 82, 2-Amino-N-(2,3-dihydro-1H-inden-2-yl)-6-((2-hydroxyphenyl)amino)-N-methylpyrimidine-4-carboxamide] | C (Increase in comparison with non-treated of 1.2-1.7 fold is shown as C) |  |
| Nc1cc(Nc2ccc(F)cc2O)cc(C(=O)NC2Cc3ccccc3C2)n1 [Example 69, 6-Amino-N-(2,3-dihydro-1H-inden-2-yl)-4-((4-fluoro-2-hydroxyphenyl)amino)picolinamide] | B (Increase in comparison with non-treated of >1.7-2.0 fold is shown as B) |  |
| Nc1cc(Nc2ccccc2O)cc(C(=O)Nc2ccccc2)n1 [Example 65, 6-Amino-4-((2-hydroxyphenyl)amino)-N-phenylpicolinamide] | A (Increase in comparison with non-treated of >2.0 fold is shown as A) |  |
| COc1ccccc1Nc1cc(N)nc(C(=O)N2CCN(c3ccccc3)CC2)c1 [Example 51, (6-Amino-4-((2-methoxyphenyl)amino)pyridin-2-yl)(4-phenylpiperazin-1-yl)methanone] | C (Increase in comparison with non-treated of 1.2-1.7 fold is shown as C) |  |
| Nc1nc(Nc2ccccc2O)cc(C(=O)N2Cc3ccccc3C2)n1 [Example 86, (2-Amino-6-((2-hydroxyphenyl)amino)pyrimidin-4-yl)(isoindolin-2-yl)methanone] | C (Increase in comparison with non-treated of 1.2-1.7 fold is shown as C) |  |
| Nc1nc(Nc2ccccc2O)cc(C(=O)N2CCc3ccccc3C2)n1 [Example 85, (2-Amino-6-((2-hydroxyphenyl)amino)pyrimidin-4-yl)(3,4-dihydroisoquinolin-2(1H)-yl)methanone] | C (Increase in comparison with non-treated of 1.2-1.7 fold is shown as C) |  |
| Nc1cc(Nc2cccc3c2OCO3)nc(C(=O)Nc2ccccc2)c1 [Example 94, 4-Amino-6-(benzo[d][1,3]dioxol-4-ylamino)-N-phenylpicolinamide] | B (Increase in comparison with non-treated of >1.7-2.0 fold is shown as B) |  |
| COc1ccccc1Nc1cc(N)cc(C(=O)N(C)C2Cc3ccccc3C2)n1 [Example 106, 4-Amino-N-(2,3-dihydro-1H-inden-2-yl)-6-((2-methoxyphenyl)amino)-N-methyl-picolinamide] | C (Increase in comparison with non-treated of 1.2-1.7 fold is shown as C) |  |
| Nc1cc(Nc2ccccc2F)cc(C(=O)NC2Cc3ccccc3C2)n1 [Example 70, 6-Amino-N-(2,3-dihydro-1H-inden-2-yl)-4-((2-fluorophenyl)amino)picolinamide] | D |  |
| Nc1cc(Nc2ccc(F)cc2)nc(C(=O)NC2Cc3ccccc3C2)c1 [Example 98, 4-Amino-N-(2,3-dihydro-1H-inden-2-yl)-6-((4-fluorophenyl)amino)picolinamide] | B (Increase in comparison with non-treated of >1.7-2.0 fold is shown as B) |  |

— patent publication US12661342B2, “Heteroaryl compounds and therapeutic uses thereof in conditions associated with the alteration of the activity of beta-glucocerebrosidase” (GT GAIN THERAPEUTICS SA, priority 2019, dated 2026)
